According to ChEMBL document CHEMBL4732228, “The total synthesis of berberine and selected analogues, and their evaluation as amyloid beta aggregation inhibitors” (Eur J Med Chem, 2021):
In brackets after ≈: the same amount, converted by molar mass. Activity calls are given as the source filed them. No cut-off for these calls is given here.

How the values were obtained:
[1] = Cytotoxicity against rat PC12 cells assessed as reduction in cell viability incubated for 24 hrs by WST-8 assay; assay type: cell-based, PC-12
[2] = target: Amyloid-beta precursor protein (Homo sapiens) (UniProt P05067); assay: Inhibition of amyloid beta (1 to 42 ) (unknown origin) aggregation at 10 uM after 20 hrs by thioflavin-T fluorescence method relative to control
[3] = Water solubility of the compound at 1 mg incubated for 12 hrs under shaking condition by UV-HPLC analysis; assay type: physicochemical
[4] = Ratio of compound solubility to curcumin solubility in water after 12 hrs by UV-HPLC analysis; assay type: physicochemical; conditions: buffer
[5] = target: Amyloid-beta precursor protein (Homo sapiens) (UniProt P05067); assay: Inhibition of amyloid beta (1 to 42 ) (unknown origin) aggregation assessed as decrease in diameter of aggregate after 20 hrs by dynamic light scattering analysis (reference value: 4.6 micrometer)
[6] = target: Amyloid-beta precursor protein (Homo sapiens) (UniProt P05067); assay: Inhibition of amyloid beta (1 to 42 ) (unknown origin) aggregation assessed as decrease in size of amyloid beta fibrils after 20 hrs by TEM analysis (reference value: 1 micrometer)
[7] = target: Amyloid-beta precursor protein (Homo sapiens) (UniProt P05067); assay: Inhibition of amyloid beta (1 to 42 ) (unknown origin) aggregation assessed as appearance of nano-rod like amyloid beta fragments after 20 hrs by CD spectroscopic method

Amyloid-beta precursor protein (Homo sapiens), sequence (P05067 whole entry, the tested form may be a part): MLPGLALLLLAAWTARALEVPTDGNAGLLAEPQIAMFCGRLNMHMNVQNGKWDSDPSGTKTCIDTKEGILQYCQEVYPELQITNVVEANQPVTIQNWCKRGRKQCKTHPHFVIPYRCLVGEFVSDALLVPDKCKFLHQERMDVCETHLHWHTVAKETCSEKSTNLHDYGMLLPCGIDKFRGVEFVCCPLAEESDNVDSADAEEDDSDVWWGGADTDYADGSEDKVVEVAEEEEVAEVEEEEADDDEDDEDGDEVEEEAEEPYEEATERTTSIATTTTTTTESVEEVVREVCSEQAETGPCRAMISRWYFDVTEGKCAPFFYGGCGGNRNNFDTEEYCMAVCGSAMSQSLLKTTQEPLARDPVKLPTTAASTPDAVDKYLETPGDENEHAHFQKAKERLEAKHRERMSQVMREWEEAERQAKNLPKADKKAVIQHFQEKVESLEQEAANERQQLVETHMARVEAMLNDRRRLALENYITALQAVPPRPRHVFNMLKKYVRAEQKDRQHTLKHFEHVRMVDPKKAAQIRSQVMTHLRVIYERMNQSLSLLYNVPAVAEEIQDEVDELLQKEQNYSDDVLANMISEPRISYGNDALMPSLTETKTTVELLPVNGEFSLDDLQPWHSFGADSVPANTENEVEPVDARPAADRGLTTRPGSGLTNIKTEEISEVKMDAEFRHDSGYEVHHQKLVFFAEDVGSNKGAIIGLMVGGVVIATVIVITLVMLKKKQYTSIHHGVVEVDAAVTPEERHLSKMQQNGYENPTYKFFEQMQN

SMILES	CC50 at 24 h [1]	inhibition [2]	solubility thermodynamic at 12 h [3]	Ratio [4]	Activity [5]	Activity [6]	inhibition [7]
COc1ccc2cc3[n+](cc2c1OC)CCc1cc2c(cc1-3)OCO2.[Cl-] [BERBERINE CHLORIDE]	> 150 µM	32%	1780 µM	9000			
COc1ccc2ccn(CCc3cc4c(cc3Br)OCO4)c(=O)c2c1OC	132 µM		15 µM (≈ 6.48 µg/mL)				
COc1ccc2cc[nH]c(=O)c2c1OC	129 µM		5.2 µM (≈ 1.07 µg/mL)				
COc1ccc2cc3[n+](cc2c1OC)CCc1cc(O)c(O)cc1-3.[Cl-]	> 150 µM	27%	2750 µM				
COc1cc(/C=C/C(=O)CC(=O)/C=C/c2ccc(O)c(OC)c2)ccc1O [CURCUMIN]	44 µM						
COc1c(O)ccc2cc3[n+](cc12)CCc1cc(O)c(O)cc1-3.[Cl-]	39 µM	39%	1500 µM				
O=C1C=C(c2ccc(O)c(O)c2)OC(c2cc(O)ccc2O)C1 (configuration not stated)	114 µM	100%	2340 µM (≈ 735 µg/mL)				
CCOC(CNC(=O)c1cccc(OC)c1OC)OCC	> 150 µM		26 µM (≈ 7.73 µg/mL)				
COc1ccc2c(c1OC)CN1CCc3cc4c(cc3C1C2)OCO4 (configuration not stated) [TETRAHYDROBERBERINE]	> 150 µM		7 µM (≈ 2.38 µg/mL)				
COc1c(O)ccc2c1CN1CCc3cc(O)c(O)cc3C1C2 (configuration not stated)	91 µM	61%	2370 µM (≈ 743 µg/mL)				
Oc1cc2c(cc1O)C1Cc3ccc(O)c(O)c3CN1CC2 (configuration not stated)	114 µM	78%	> 3340 µM		1.3 nm	50 nm	Active
COc1ccc2cc3n(c(=O)c2c1OC)CCc1cc2c(cc1-3)OCO2 [OXYBERBERINE]	137 µM						
Oc1cc2c(cc1O)-c1cc3ccc(O)c(O)c3c[n+]1CC2.[Cl-]	9.8 µM	72%	2450 µM			50 nm	Active
